# Reference: PubChem BioAssay (NCI)
#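 Results reflect a 48-hour exposure of cells in 96-well plates to compound at five concentrations. Abbreviation: GI50, concentration required for 50% inhibition of growth. TGI marks complete inhibition of growth.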
# Assays:
# Assay in all cases: NCI-60 cell line screen, 48 h
# 786-0 renal = system: 786-0 renal
# A498 renal = system: A498 renal
# ACHN renal = system: ACHN renal
# BT-549 breast = system: BT-549 breast
# CAKI-1 renal = system: CAKI-1 renal
# CCRF-CEM leukemia = system: CCRF-CEM leukemia
# COLO 205 colon = system: COLO 205 colon
# DU-145 prostate = system: DU-145 prostate
# EKVX NSCLC = system: EKVX NSCLC
# HCC-2998 colon = system: HCC-2998 colon
# HCT-116 colon = system: HCT-116 colon
# HCT-15 colon = system: HCT-15 colon
# HL-60(TB) leukemia = system: HL-60(TB) leukemia
# HOP-62 NSCLC = system: HOP-62 NSCLC
# HOP-92 NSCLC = system: HOP-92 NSCLC
# HS 578T breast = system: HS 578T breast
# HT29 colon = system: HT29 colon
# IGROV1 ovarian = system: IGROV1 ovarian
# K-562 leukemia = system: K-562 leukemia
# KM12 colon = system: KM12 colon
# LOX IMVI melanoma = system: LOX IMVI melanoma
# MALME-3M melanoma = system: MALME-3M melanoma
# MCF7 breast = system: MCF7 breast
# MDA-MB-231 breast = system: MDA-MB-231 breast
# MDA-MB-435 = system: MDA-MB-435
# MDA-N = system: MDA-N
# MOLT-4 leukemia = system: MOLT-4 leukemia
# NCI-H23 lung = system: NCI-H23 lung
# NCI-H460 lung = system: NCI-H460 lung
# NCI-H522 lung = system: NCI-H522 lung
# NCI/ADR-RES ovarian = system: NCI/ADR-RES ovarian
# OVCAR-3 ovarian = system: OVCAR-3 ovarian
# OVCAR-4 ovarian = system: OVCAR-4 ovarian
# OVCAR-5 ovarian = system: OVCAR-5 ovarian
# OVCAR-8 ovarian = system: OVCAR-8 ovarian
# PC-3 prostate = system: PC-3 prostate
# RPMI-8226 leukemia = system: RPMI-8226 leukemia
# RXF 393 renal = system: RXF 393 renal
# SF-268 CNS = system: SF-268 CNS
# SF-295 CNS = system: SF-295 CNS
# SK-MEL-2 melanoma = system: SK-MEL-2 melanoma
# SK-MEL-28 melanoma = system: SK-MEL-28 melanoma
# SK-MEL-5 melanoma = system: SK-MEL-5 melanoma
# SK-OV-3 ovarian = system: SK-OV-3 ovarian
# SN12C renal = system: SN12C renal
# SNB-75 CNS = system: SNB-75 CNS
# SW-620 colon = system: SW-620 colon
# T-47D breast = system: T-47D breast
# TK-10 renal = system: TK-10 renal
# U251 CNS = system: U251 CNS
# UACC-257 melanoma = system: UACC-257 melanoma
# UACC-62 melanoma = system: UACC-62 melanoma
# A549 NSCLC = system: A549 NSCLC
# M14 melanoma = system: M14 melanoma
# NCI-H226 lung = system: NCI-H226 lung
# SF-539 CNS = system: SF-539 CNS
# SNB-19 CNS = system: SNB-19 CNS
# UO-31 renal = system: UO-31 renal
structure (smiles),measurement,setting,value
CCCCCCCCCCCCCCN,TGI,786-0 renal,> 100 µM
same,TGI,A498 renal,> 100 µM
same,TGI,ACHN renal,> 100 µM
same,TGI,BT-549 breast,> 100 µM
same,TGI,CAKI-1 renal,> 100 µM
same,TGI,CCRF-CEM leukemia,> 100 µM
same,TGI,COLO 205 colon,> 100 µM
same,TGI,DU-145 prostate,> 100 µM
same,TGI,EKVX NSCLC,> 100 µM
same,TGI,HCC-2998 colon,> 100 µM
same,TGI,HCT-116 colon,> 100 µM
same,TGI,HCT-15 colon,> 100 µM
same,TGI,HL-60(TB) leukemia,> 100 µM
same,TGI,HOP-62 NSCLC,> 100 µM
same,TGI,HOP-92 NSCLC,> 100 µM
same,TGI,HS 578T breast,> 100 µM
same,TGI,HT29 colon,> 100 µM
same,TGI,IGROV1 ovarian,> 100 µM
same,TGI,K-562 leukemia,> 100 µM
same,TGI,KM12 colon,> 100 µM
same,TGI,LOX IMVI melanoma,> 100 µM
same,TGI,MALME-3M melanoma,> 100 µM
same,TGI,MCF7 breast,> 100 µM
same,TGI,MDA-MB-231 breast,> 100 µM
same,TGI,MDA-MB-435,> 100 µM
same,TGI,MDA-N,> 100 µM
same,TGI,MOLT-4 leukemia,> 100 µM
same,TGI,NCI-H23 lung,> 100 µM
same,TGI,NCI-H460 lung,> 100 µM
same,TGI,NCI-H522 lung,> 100 µM
same,TGI,NCI/ADR-RES ovarian,> 100 µM
same,TGI,OVCAR-3 ovarian,> 100 µM
same,TGI,OVCAR-4 ovarian,> 100 µM
same,TGI,OVCAR-5 ovarian,> 100 µM
same,TGI,OVCAR-8 ovarian,> 100 µM
same,TGI,PC-3 prostate,> 100 µM
same,TGI,RPMI-8226 leukemia,> 100 µM
same,TGI,RXF 393 renal,> 100 µM
same,TGI,SF-268 CNS,> 100 µM
same,TGI,SF-295 CNS,> 100 µM
same,TGI,SK-MEL-2 melanoma,> 100 µM
same,TGI,SK-MEL-28 melanoma,> 100 µM
same,TGI,SK-MEL-5 melanoma,> 100 µM
same,TGI,SK-OV-3 ovarian,> 100 µM
same,TGI,SN12C renal,> 100 µM
same,TGI,SNB-75 CNS,> 100 µM
same,TGI,SW-620 colon,> 100 µM
same,TGI,T-47D breast,> 100 µM
same,TGI,TK-10 renal,> 100 µM
same,TGI,U251 CNS,> 100 µM
same,TGI,UACC-257 melanoma,> 100 µM
same,TGI,UACC-62 melanoma,> 100 µM
COc1ccc(-c2cc(=O)c3c(C)cc(C)nc3[nH]2)cc1,GI50,786-0 renal,58.8 µM
same,TGI,786-0 renal,> 100 µM
same,TGI,A498 renal,> 100 µM
same,TGI,A549 NSCLC,> 100 µM
same,TGI,ACHN renal,> 100 µM
same,TGI,BT-549 breast,86.7 µM
same,TGI,CAKI-1 renal,82.9 µM
same,TGI,CCRF-CEM leukemia,43.2 µM
same,TGI,COLO 205 colon,42.6 µM
same,TGI,DU-145 prostate,> 100 µM
same,TGI,EKVX NSCLC,> 100 µM
same,TGI,HCC-2998 colon,> 100 µM
same,GI50,HCT-116 colon,36.5 µM
same,TGI,HCT-116 colon,> 100 µM
same,TGI,HCT-15 colon,> 100 µM
same,TGI,HL-60(TB) leukemia,35.4 µM
same,TGI,HOP-62 NSCLC,> 100 µM
same,TGI,HOP-92 NSCLC,> 100 µM
same,TGI,HS 578T breast,> 100 µM
same,TGI,HT29 colon,> 100 µM
same,TGI,IGROV1 ovarian,84.8 µM
same,TGI,K-562 leukemia,> 100 µM
same,TGI,KM12 colon,> 100 µM
same,TGI,LOX IMVI melanoma,> 100 µM
same,TGI,M14 melanoma,> 100 µM
same,TGI,MALME-3M melanoma,88 µM
same,TGI,MCF7 breast,> 100 µM
same,TGI,MDA-MB-231 breast,67.5 µM
same,GI50,MDA-MB-435,29.1 µM
same,TGI,MDA-MB-435,> 100 µM
same,GI50,MDA-N,33.2 µM
same,TGI,MDA-N,> 100 µM
same,TGI,MOLT-4 leukemia,42.9 µM
same,TGI,NCI-H226 lung,> 100 µM
same,TGI,NCI-H23 lung,> 100 µM
same,GI50,NCI-H460 lung,40.9 µM
same,TGI,NCI-H460 lung,> 100 µM
same,TGI,NCI-H522 lung,> 100 µM
same,TGI,NCI/ADR-RES ovarian,> 100 µM
same,GI50,OVCAR-3 ovarian,32.7 µM
same,TGI,OVCAR-3 ovarian,> 100 µM
same,TGI,OVCAR-4 ovarian,> 100 µM
same,TGI,OVCAR-5 ovarian,> 100 µM
same,TGI,OVCAR-8 ovarian,> 100 µM
same,GI50,PC-3 prostate,23.9 µM
same,TGI,PC-3 prostate,> 100 µM
same,TGI,RPMI-8226 leukemia,54.6 µM
same,TGI,RXF 393 renal,> 100 µM
same,TGI,SF-268 CNS,> 100 µM
same,GI50,SF-295 CNS,42.5 µM
same,TGI,SF-295 CNS,> 100 µM
same,TGI,SF-539 CNS,> 100 µM
same,TGI,SK-MEL-2 melanoma,> 100 µM
same,TGI,SK-MEL-28 melanoma,> 100 µM
same,GI50,SK-MEL-5 melanoma,17.6 µM
same,TGI,SK-MEL-5 melanoma,33.1 µM
same,TGI,SK-OV-3 ovarian,> 100 µM
same,TGI,SN12C renal,> 100 µM
same,TGI,SNB-19 CNS,> 100 µM
same,TGI,SW-620 colon,> 100 µM
same,TGI,T-47D breast,> 100 µM
same,TGI,TK-10 renal,99.2 µM
same,GI50,U251 CNS,90.7 µM
same,TGI,U251 CNS,> 100 µM
same,TGI,UACC-257 melanoma,85.3 µM
same,TGI,UACC-62 melanoma,46.6 µM
same,TGI,UO-31 renal,> 100 µM
